For twelve molecules, TGI results are on record in PubChem BioAssay (NCI).

Holding throughout (test): NCI tumour cell line growth inhibition, 48 h
For assay [1], the system named is U251 CNS.
The subject of assay [2] is TK-10 renal.
In assay [3] the test system is M14 melanoma.
The subject of assay [4] is K-562 leukemia.
In assay [5] the test system is A498 renal.
Assay [6] deals with 786-0 renal.
The subject of assay [7] is CCRF-CEM leukemia.
The subject of assay [8] is NCI/ADR-RES ovarian.
Assay [9] concerns MDA-N.
The test system of assay [10] is SK-MEL-28 melanoma.
Assay [11] concerns SF-539 CNS.

Structures are written as SMILES.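 1) Cells in 96-well plates. 2) Compound, 48 h, 5 concentrations. 3) Linear interpolation between surrounding doses. 4) Unreached endpoint = highest concentration. Definition used: TGI = concentration required for complete inhibition of growth.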

For the molecule `O=C1C(S(=O)(=O)c2ccccc2)=C(CS(=O)(=O)c2ccccc2)[C@@H](OCc2ccccc2)[C@@H]1OCc1ccccc1`, the TGI in assay [1] is 53.3 µM; in [2], above 100 µM; in [3], 32.1 µM; in [4], 35.8 µM; in assay [5], 57.3 µM; in [6] it was above 100 µM. Besides, the TGI amounted to 42.7 µM in assay [7]; 54.4 µM in assay [8]; 88.7 µM in assay [9]; 35.9 µM in assay [10]; 40.6 µM in assay [11].

As to `COc1ccc(C(=O)/C=C/c2ccc(OCC(=N)N)cc2)cc1`, the TGI in [1] stood at 27.7 µM; in [2], 38.9 µM; in [3], 32.6 µM; in [4] it was 20.1 µM; in assay [5], 27.9 µM; in assay [6] it was 29.9 µM. Further, the TGI amounted to 25.7 µM in [7]; 72 µM in [8]; 31.4 µM in assay [9]; 28.6 µM in [10]; 29.6 µM in assay [11].

Turning to `O=c1c2c(F)c(F)c(F)c(F)c2sc2nccn12`, the TGI in [1] came to 29.2 µM; in assay [2], 32.8 µM; in [3], 32 µM; in [4] it was 29.4 µM; in [5], 35.1 µM; in assay [6] it was 29.3 µM. Moreover, the TGI worked out at 29.6 µM in assay [7]; 93.3 µM in assay [8]; 29.4 µM in [9]; 53.5 µM in assay [10]; 31.4 µM in assay [11].

Regarding `c1ccc([P+](c2ccccc2)(c2ccccc2)C2c3ccccc3-c3ccccc32)cc1`, the TGI is 4.12 µM in assay [1]; 9.21 µM in assay [2]; 11.3 µM in assay [3]; above 100 µM in assay [4]; 4.51 µM in [5]; 10.9 µM in assay [6]. In addition, the TGI in assay [7] worked out at 7.61 µM; in [8], 41.9 µM; in [9] it was 7.84 µM; in assay [10], 8.03 µM; in assay [11], 6.98 µM.

On to `O=C(N/N=C/C=C/c1ccc([N+](=O)[O-])o1)c1ccc(C(=O)N/N=C/C=C/c2ccc([N+](=O)[O-])o2)cc1`, for which the TGI was above 52.8 µM in assay [1]; above 69.7 µM in assay [2]; 49.7 µM in [3]; above 93.5 µM in assay [4]; above 100 µM in assay [5]; above 72.1 µM in assay [6]. The TGI in assay [7] was above 20.3 µM; in assay [8], above 92.8 µM; in assay [9], above 84.8 µM; in [10], above 100 µM; in [11] it was 22.3 µM.

On to `c1ccc([P+](CCCCCC[P+](c2ccccc2)(c2ccccc2)c2ccccc2)(c2ccccc2)c2ccccc2)cc1`, for which the TGI in assay [1], in [2], in assay [3], in [4], in assay [5] and in assay [6] was above 100 µM throughout. The TGI in assay [7] is above 100 µM; in assay [8], above 100 µM; in assay [9] it was 54.9 µM; in [10] it was above 100 µM; in [11], 39 µM.

Regarding `O=c1oc2ccc3ccccc3c2cc1-c1nc2ccc([N+](=O)[O-])cc2o1`, the TGI was above 100 µM in assay [1]; above 78.6 µM in assay [2]; above 75.3 µM in assay [3]; above 100 µM in assay [4]; above 88.4 µM in [5]; above 55.3 µM in assay [6]. The TGI is above 100 µM in assay [7]; above 100 µM in assay [8]; above 100 µM in assay [9]; above 100 µM in assay [10]; 26.3 µM in [11].

For `COC(=O)C1=NN2c3ccccc3CN([C@@H](C)c3ccccc3)C(=O)[C@@H]2[C@H]1c1ccccc1`, the TGI in assay [1], in assay [2], in assay [3], in [4], in [5] and in assay [6] was above 100 µM each time. Also, the TGI in assay [7], in [8], in assay [9], in assay [10] and in assay [11] was above 100 µM in each case.

In the case of `CC[C@@]1(CCC(=O)NCCc2c[nH]c3ccccc23)CCC(=O)N2CCc3c([nH]c4ccccc34)[C@H]21`, the TGI in assay [1], in assay [2], in assay [3], in assay [4], in assay [5] and in assay [6] was above 100 µM throughout. The TGI in assay [7] is above 100 µM; in [8], 33.4 µM; in [9] it was above 100 µM; in assay [10], above 100 µM; in assay [11], 61.3 µM.

Turning to `CCO/C(Cc1ccc(Cl)cc1)=N/NC(N)=S`, the TGI in assay [1], in assay [2], in [3], in assay [4], in assay [5] and in assay [6] was above 100 µM each time. Besides, the TGI in assay [7], in [8], in [9], in assay [10] and in assay [11] was above 100 µM each time.

With `COc1cc2c[n+](C)c3c(c2cc1OC)Cc1cc2c(cc1-3)OCO2`, the TGI in [1], in assay [2], in assay [3], in assay [4], in [5] and in assay [6] was above 100 µM in each case. Further, the TGI in assay [7], in [8], in [9], in [10] and in assay [11] was above 100 µM each time.

With `C=CC1(C)OC2(CCN(C(=O)OCC)CC2)OC1C` (configuration not stated), the TGI in assay [1], in assay [2], in assay [3], in assay [4], in [5] and in assay [6] was above 100 µM in each case. The TGI in assay [7], in assay [8], in assay [9], in [10] and in assay [11] was above 100 µM throughout.
